According to US4657865A, “Pullulanase-like enzyme, method for preparation thereof, and method for saccharification of starch therewith” (Agency of Industrial Science & Technology, priority 1985, dated 1987):

Columns and labels:
pullulanase-like enzyme = experiment: Inhibition of the pullulanase activity by metal salts; assay type: biochemical, Bacillus subtilis; conditions: inhibitor concentration 1×10^-3 M
Protocol: (6) Inhibitor: This enzyme undergoes not less than 90% of inhibition by each of HgCl2 and AgNO3 used in a concentration of 1×10^-3 M and about 70% of inhibition by ZnSO4 used in the same concentration.
(10) Procedure for determination of activity: This enzyme is added in a suitable amount to 0.5 ml of a 1% pullulan solution (pH 7.0) obtained by dissolving pullulan in 0.1M phosphate buffer. The mixture is made up to a total volume of 1 ml with water and incubated at 40° C. The amount of this enzyme which is required in producing reducing power equivalent to 1μ mole of glucose after one minute standing under the aforementioned conditions is defined as one unit.

[1] = tested on: Bacillus subtilis (FERM BP-672) parent strain; experiment: Growth on culture medium containing Tunicamycin, parent strain; assay type: cell-based; conditions: culture medium containing Tunicamycin 25-100 μg/ml
From the text: (§1) The aforementioned pullulanase-like enzyme is produced by a bacterium isolated from soil and identified to be Bacillus subtilis (FERM BP-672). […] It has been designated as Bacillus subtilis TU strain, deposited with Fermentation Research Institute, Agency of Industrial Science & Technology on Oct. 13, 1984 under FERM 7893, and also transferred to the International Deposition based on the Budapest Treaty on Dec. 20, 1984 and designated FERM BP-684.
(§2) A strain of Bacillus subtilis (FERM BP-672) was suspended in distilled water and irradiated with the ultraviolet light (15 W) from its source at a distance of about 30 cm for 5 minutes. Part of the irradiated suspension was placed in a culture medium containing 75 μg of Tunicamycin per ml (containing 1% of polypepton, 1% of soluble starch, 0.3% of K2 HPO4, and 0.1% of MgSO4.7H2 O) and aerobically cultured therein at 30° C. for three days. The grown microorganism was sprayed on a plate culture medium with the same culture medium containing agar and incubated at 30° C. The colonies which grew were preserved on a slant medium of the same composition. In the Tunicamycin-resistant mutants so produced, there was obtained in high frequency a strain of enhanced activity to produce the pullulanase-like enzyme. Bacillus subtilis TU strain (FERM BP-684) was thus obtained.

[2] = tested on: Bacillus subtilis TU strain; experiment: Growth on culture medium containing Tunicamycin, TU strain; assay type: cell-based; conditions: culture medium containing Tunicamycin 25-100 μg/ml
From the text: as §1, §2

Compound | inhibition (pullulanase-like enzyme) | growth of the parent strain [1] | growth of the TU strain [2]
O=[N+]([O-])[O-].[Ag+] [AgNO3] | not less than 90% | – | –
[Cl][Hg][Cl] [HgCl2] | not less than 90% | – | –
O=S(=O)([O-])[O-].[Zn+2] [ZnSO4] | about 70% | – | –
Tunicamycin | – | fails to show any growth | grows fairly well
